Results taken from patent US8426345B2, “Method of drug design” (Alchemia Limited, priority 2005, dated 2013).

Target: T1, Human SST5 somatostatin receptor (Homo sapiens, UniProt P35346)
T1 construct: expressed in transfected cells; host or cells: HEK-293 EBNA cells (membranes)
Assay: Filter plate radio-ligand binding assay for SST5 receptor ([125I]SST-14 displacement)
Settings: 3P library; for % SST5 radio-ligand binding displaced at conc 0.001: conc 0.001 μM; for % SST5 radio-ligand binding displaced at conc 0.10: conc 0.10 μM; for % SST5 radio-ligand binding displaced at conc 0.5: conc 0.5 μM; for % SST5 radio-ligand binding displaced at conc 1.0: conc 1.0 μM; for % SST5 radio-ligand binding displaced at conc 10: conc 10 μM; for % SST5 radio-ligand binding displaced at conc 0.25: conc 0.25 μM

T1 sequence (P35346 whole entry): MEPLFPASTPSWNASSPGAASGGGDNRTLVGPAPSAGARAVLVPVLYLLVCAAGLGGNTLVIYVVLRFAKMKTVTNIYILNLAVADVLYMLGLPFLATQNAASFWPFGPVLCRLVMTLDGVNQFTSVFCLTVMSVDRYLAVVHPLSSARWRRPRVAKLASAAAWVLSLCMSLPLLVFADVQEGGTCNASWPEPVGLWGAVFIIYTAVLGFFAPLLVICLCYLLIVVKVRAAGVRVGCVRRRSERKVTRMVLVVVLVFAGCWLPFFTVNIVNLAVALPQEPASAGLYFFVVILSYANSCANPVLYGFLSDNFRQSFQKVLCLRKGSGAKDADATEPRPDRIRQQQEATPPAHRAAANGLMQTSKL

Structure (SMILES)	% SST5 radio-ligand binding displaced at conc 0.001	% SST5 radio-ligand binding displaced at conc 0.10	% SST5 radio-ligand binding displaced at conc 0.5	% SST5 radio-ligand binding displaced at conc 1.0	% SST5 radio-ligand binding displaced at conc 10	% SST5 radio-ligand binding displaced at conc 0.25
COCC1OC(OCc2ccc3ccccc3c2)C(NC(=O)CCN)C(OCc2ccccc2)C1O (mixture of isomers) [Compound 64]	− (% SST5 radio-ligand binding displaced at cone (μM) −<40%)	+ (% SST5 radio-ligand binding displaced at cone (μM) 60>+>40%)	++ (% SST5 radio-ligand binding displaced at conc (μM) >60%)	++ (% SST5 radio-ligand binding displaced at conc (μM) >60%)	++ (% SST5 radio-ligand binding displaced at conc (μM) >60%)	–
COCC1OC(OCc2ccc3ccccc3c2)C(NC(=O)CCN)C(OCc2ccccc2)C1O (mixture of isomers) [Compound 65]	–	–	–	–	++ (% SST5 radio-ligand binding displaced at conc (μM) >60%)	–
COCC1OC(OCc2ccc3ccccc3c2)C(NC(=O)CCN)C(OCc2ccc(Cl)cc2)C1O (mixture of isomers) [Compound 66]	− (% SST5 radio-ligand binding displaced at cone (μM) −<40%)	− (% SST5 radio-ligand binding displaced at cone (μM) −<40%)	++ (% SST5 radio-ligand binding displaced at conc (μM) >60%)	++ (% SST5 radio-ligand binding displaced at conc (μM) >60%)	++ (% SST5 radio-ligand binding displaced at conc (μM) >60%)	–
COCC1OC(OCc2ccc3ccccc3c2)C(NC(=O)CCN)C(OCc2ccc(Cl)cc2)C1O (mixture of isomers) [Compound 67]	–	–	–	–	++ (% SST5 radio-ligand binding displaced at conc (μM) >60%)	–
COCC1OC(OCc2ccc3ccccc3c2)C(NC(=O)CCN)C(OCc2ccc(-c3ccccc3)cc2)C1O (mixture of isomers) [Compound 68]	− (% SST5 radio-ligand binding displaced at cone (μM) −<40%)	− (% SST5 radio-ligand binding displaced at cone (μM) −<40%)	++ (% SST5 radio-ligand binding displaced at conc (μM) >60%)	++ (% SST5 radio-ligand binding displaced at conc (μM) >60%)	++ (% SST5 radio-ligand binding displaced at conc (μM) >60%)	− (% SST5 radio-ligand binding displaced at cone (μM) −<40%)
COCC1OC(OCc2ccc3ccccc3c2)C(NC(=O)CCN)C(OCc2ccc3ccccc3c2)C1O (mixture of isomers) [Compound 69]	+ (% SST5 radio-ligand binding displaced at cone (μM) 60>+>40%)	++ (% SST5 radio-ligand binding displaced at conc (μM) >60%)	++ (% SST5 radio-ligand binding displaced at conc (μM) >60%)	++ (% SST5 radio-ligand binding displaced at conc (μM) >60%)	++ (% SST5 radio-ligand binding displaced at conc (μM) >60%)	–
NCCC(=O)NC1C(OCc2ccc3ccccc3c2)OC(COCc2ccc3ccccc3c2)C(O)C1OCc1ccc(Cl)cc1 (mixture of isomers) [Compound 70]	–	–	–	+ (% SST5 radio-ligand binding displaced at cone (μM) 60>+>40%)	–	− (% SST5 radio-ligand binding displaced at cone (μM) −<40%)
NCCC(=O)NC1C(OCc2ccc3ccccc3c2)OC(COCc2ccccc2)C(O)C1OCc1ccc(Cl)cc1 (mixture of isomers) [Compound 71]	–	–	–	++ (% SST5 radio-ligand binding displaced at conc (μM) >60%)	–	− (% SST5 radio-ligand binding displaced at cone (μM) −<40%)
NCCC(=O)NC1C(OCc2ccc3ccccc3c2)OC(COCc2ccc(Cl)cc2)C(O)C1OCc1ccc(Cl)cc1 (mixture of isomers) [Compound 72]	–	–	–	++ (% SST5 radio-ligand binding displaced at conc (μM) >60%)	–	− (% SST5 radio-ligand binding displaced at cone (μM) −<40%)
NCCC(=O)NC1C(OCc2ccc3ccccc3c2)OC(COCc2ccc3ccccc3c2)C(O)C1OCc1ccc2ccccc2c1 (mixture of isomers) [Compound 73]	–	–	–	+ (% SST5 radio-ligand binding displaced at cone (μM) 60>+>40%)	–	− (% SST5 radio-ligand binding displaced at cone (μM) −<40%)
NCCC(=O)NC1C(OCc2ccc3ccccc3c2)OC(COCc2ccccc2)C(O)C1OCc1ccc2ccccc2c1 (mixture of isomers) [Compound 74]	–	–	–	++ (% SST5 radio-ligand binding displaced at conc (μM) >60%)	–	− (% SST5 radio-ligand binding displaced at cone (μM) −<40%)
NCCC(=O)NC1C(OCc2ccc3ccccc3c2)OC(COCc2ccc(Cl)cc2)C(O)C1OCc1ccc2ccccc2c1 (mixture of isomers) [Compound 75]	–	–	–	++ (% SST5 radio-ligand binding displaced at conc (μM) >60%)	–	− (% SST5 radio-ligand binding displaced at cone (μM) −<40%)
NCCC(=O)NC1C(OCc2ccc3ccccc3c2)OC(COCc2ccc3ccccc3c2)C(O)C1OCc1ccccc1 (mixture of isomers) [Compound 76]	–	–	–	++ (% SST5 radio-ligand binding displaced at conc (μM) >60%)	–	− (% SST5 radio-ligand binding displaced at cone (μM) −<40%)
NCCC(=O)NC1C(OCc2ccc3ccccc3c2)OC(COCc2ccccc2)C(O)C1OCc1ccccc1 (mixture of isomers) [Compound 77]	–	–	–	++ (% SST5 radio-ligand binding displaced at conc (μM) >60%)	–	− (% SST5 radio-ligand binding displaced at cone (μM) −<40%)
NCCC(=O)NC1C(OCc2ccc3ccccc3c2)OC(COCc2ccc(Cl)cc2)C(O)C1OCc1ccccc1 (mixture of isomers) [Compound 78]	–	–	–	++ (% SST5 radio-ligand binding displaced at conc (μM) >60%)	–	+ (% SST5 radio-ligand binding displaced at cone (μM) 60>+>40%)
COC1C(O)C(COCc2ccccc2)OC(OCc2ccc3ccccc3c2)C1NC(=O)CCN (mixture of isomers) [Compound 93]	–	–	–	+ (% SST5 radio-ligand binding displaced at cone (μM) 60>+>40%)	–	− (% SST5 radio-ligand binding displaced at cone (μM) −<40%)
COC1C(O)C(COCc2ccc3ccccc3c2)OC(OCc2ccc3ccccc3c2)C1NC(=O)CCN (mixture of isomers) [Compound 97]	–	–	–	+ (% SST5 radio-ligand binding displaced at cone (μM) 60>+>40%)	–	− (% SST5 radio-ligand binding displaced at cone (μM) −<40%)
COCC1OC(OCc2ccc3ccccc3c2)C(NC(=O)CCCN)C(OCc2ccccc2)C1O (mixture of isomers) [Compound 120]	–	–	+ (% SST5 radio-ligand binding displaced at cone (μM) 60>+>40%)	–	++ (% SST5 radio-ligand binding displaced at conc (μM) >60%)	–
COC1C(O)C(COCc2ccc(-c3ccccc3)cc2)OC(OCc2ccc3ccccc3c2)C1NC(=O)CCCN (mixture of isomers) [Compound 121]	–	–	+ (% SST5 radio-ligand binding displaced at cone (μM) 60>+>40%)	–	+ (% SST5 radio-ligand binding displaced at cone (μM) 60>+>40%)	–
COC1C(O)C(COCc2ccc3ccccc3c2)OC(OCc2ccc3ccccc3c2)C1NC(=O)CCCN (mixture of isomers) [Compound 122]	–	–	++ (% SST5 radio-ligand binding displaced at conc (μM) >60%)	–	++ (% SST5 radio-ligand binding displaced at conc (μM) >60%)	–
COC1C(O)C(COCc2ccccc2)OC(OCc2ccc3ccccc3c2)C1NC(=O)CCCN (mixture of isomers) [Compound 123]	–	–	− (% SST5 radio-ligand binding displaced at cone (μM) −<40%)	–	− (% SST5 radio-ligand binding displaced at cone (μM) −<40%)	–
COC1C(O)C(COCc2ccc(Cl)cc2)OC(OCc2ccc3ccccc3c2)C1NC(=O)CCCN (mixture of isomers) [Compound 124]	–	–	− (% SST5 radio-ligand binding displaced at cone (μM) −<40%)	–	+ (% SST5 radio-ligand binding displaced at cone (μM) 60>+>40%)	–
COC1C(O)C(COCc2cccc(O)c2)OC(OCc2ccc3ccccc3c2)C1NC(=O)CCCN (mixture of isomers) [Compound 125]	–	–	− (% SST5 radio-ligand binding displaced at cone (μM) −<40%)	–	+ (% SST5 radio-ligand binding displaced at cone (μM) 60>+>40%)	–
COCC1OC(OCc2ccc3ccccc3c2)C(NC(=O)CCCN)C(OCc2ccccc2)C1O (mixture of isomers) [Compound 126]	− (% SST5 radio-ligand binding displaced at cone (μM) −<40%)	− (% SST5 radio-ligand binding displaced at cone (μM) −<40%)	+ (% SST5 radio-ligand binding displaced at cone (μM) 60>+>40%)	+ (% SST5 radio-ligand binding displaced at cone (μM) 60>+>40%)	++ (% SST5 radio-ligand binding displaced at conc (μM) >60%)	–
COCC1OC(OCc2ccc3ccccc3c2)C(NC(=O)CCCN)C(OCc2ccc(Cl)cc2)C1O (mixture of isomers) [Compound 127]	− (% SST5 radio-ligand binding displaced at cone (μM) −<40%)	− (% SST5 radio-ligand binding displaced at cone (μM) −<40%)	++ (% SST5 radio-ligand binding displaced at conc (μM) >60%)	++ (% SST5 radio-ligand binding displaced at conc (μM) >60%)	++ (% SST5 radio-ligand binding displaced at conc (μM) >60%)	–
